Data from US12122778B2, “Activating pyruvate kinase R” (Novo Nordisk Health Care AG, priority 2018, dated 2024).

Experiments:
PKR(G332S) = PKR(G332S) (Homo sapiens, UniProt P30613, G332S); assay: Luminescence Biochemical Assay (Kinase Glo Plus), PKR G332S mutant; details: with FBP; for activation at 1.54 µM: 1.54 μM compound, read-out: AC50 LUM KGP FBP % Fold@1.54 μM mean; for AC50: read-out: AC50 LUM KGP FBP AC50 μM gmean (column A); for Emax: read-out: AC50 LUM KGP FBP MAX % FOLD mean
PKR(R510Q) = PKR(R510Q) (Homo sapiens, UniProt P30613, R510Q); assay: Luminescence Biochemical Assay (Kinase Glo Plus), PKR R510Q mutant; details: without FBP; for activation at 1.54 µM: 1.54 μM compound, read-out: AC50 LUM KGP woFBP % Fold@1.54 μM mean; for AC50: read-out: AC50 LUM KGP woFBP AC50 μM gmean; for Emax: read-out: AC50 LUM KGP woFBP MAX % FOLD mean
Sequence of PKR(R510Q) (P30613 whole entry R510Q): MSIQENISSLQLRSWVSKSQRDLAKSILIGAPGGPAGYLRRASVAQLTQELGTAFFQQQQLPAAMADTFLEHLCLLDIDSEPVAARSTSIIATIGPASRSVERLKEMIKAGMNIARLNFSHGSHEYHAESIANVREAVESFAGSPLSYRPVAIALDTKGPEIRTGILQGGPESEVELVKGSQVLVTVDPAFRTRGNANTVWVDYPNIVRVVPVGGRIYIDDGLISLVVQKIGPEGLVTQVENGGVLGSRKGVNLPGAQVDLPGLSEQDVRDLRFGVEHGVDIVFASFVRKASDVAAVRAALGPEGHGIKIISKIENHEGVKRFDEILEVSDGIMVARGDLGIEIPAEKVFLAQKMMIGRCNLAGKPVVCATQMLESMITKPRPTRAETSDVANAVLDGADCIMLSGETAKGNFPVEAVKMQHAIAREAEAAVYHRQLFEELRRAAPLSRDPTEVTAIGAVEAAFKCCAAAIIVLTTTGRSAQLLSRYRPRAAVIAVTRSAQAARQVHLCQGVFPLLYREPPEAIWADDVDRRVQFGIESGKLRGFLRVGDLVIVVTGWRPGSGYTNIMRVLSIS

PKR(wt) = PKR(wt) (Homo sapiens, UniProt P30613); assay: Luminescence Biochemical Assay (Kinase Glo Plus), wild type PKR; details: without FBP; for activation at 1.54 µM: 1.54 μM compound, read-out: AC50 LUM KGP woFBP % Fold@1.54 μM mean; for AC50: read-out: AC50 LUM KGP woFBP AC50 μM gmean; for Emax: read-out: AC50 LUM KGP woFBP MAX % FOLD mean
Sequence of PKR(wt) (P30613 whole entry): as the sequence (P30613 whole entry R510Q) above, with Q510R counted along it

Sequence of PKR(G332S) (P30613 whole entry G332S): as the sequence (P30613 whole entry R510Q) above, with G332S, Q510R counted along it

Compound	activation at 1.54 µM (PKR(G332S)) [%]	AC50 (PKR(G332S)) [µM]	Emax (PKR(G332S)) [%]	activation at 1.54 µM (PKR(R510Q)) [%]	AC50 (PKR(R510Q)) [µM]	Emax (PKR(R510Q)) [%]	activation at 1.54 µM (PKR(wt)) [%]	AC50 (PKR(wt)) [µM]	Emax (PKR(wt)) [%]
O=C([C@H](O)c1ccc(F)cc1)N1CC2=C(C1)CN(S(=O)(=O)c1ccc(C(F)(F)F)nc1)C2 [Example 18-64, (2R)-2-(4-fluorophenyl)-2-hydroxy-1-(5-{[6-(trifluoromethyl)pyridin-3-yl]sulfonyl}-1H,2H,3H,4H,5H,6H-pyrrolo[3,4-c]pyrrol-2-yl)ethan-1-one]	75 to 250	1 to 40	75 to 250	75 to 250	1 to 40	75 to 250	75 to 250	1 to 40	75 to 250
O=C(N1CC2=C(C1)CN(S(=O)(=O)c1ccccn1)C2)C1(O)CC1 [Example 18-65, 1-[5-(Pyridine-2-sulfonyl)-1H,2H,3H,4H,5H,6H-pyrrolo[3,4-c]pyrrole-2-carbonyl]cyclopropan-1-ol]	75 to 250	1 to 40	75 to 250	75 to 250	1 to 40	75 to 250	75 to 250	1 to 40	250 to 500
O=C(Cc1ccc(F)cc1F)N1CC2=C(C1)CN(S(=O)(=O)c1ccccn1)C2 [Example 18-67, 2-(2,4-Difluorophenyl)-1-[5-(pyridine-2-sulfonyl)-1H,2H,3H,4H,5H,6H-pyrrolo[3,4-c]pyrrol-2-yl]ethan-1-one]	75 to 250	0.1 to 1	75 to 250	75 to 250	1 to 40	250 to 500	75 to 250	1 to 40	250 to 500
Cc1nc(CC(=O)N2CC3=C(C2)CN(S(=O)(=O)c2ccccn2)C3)cs1 [Example 18-68, 2-(2-Methyl-1,3-thiazol-4-yl)-1-[5-(pyridine-2-sulfonyl)-1H,2H,3H,4H,5H,6H-pyrrolo[3,4-c]pyrrol-2-yl]ethan-1-one]	75 to 250	0.1 to 1	75 to 250	75 to 250	1 to 40	75 to 250	75 to 250	1 to 40	250 to 500
O=C([C@@H]1CCCO1)N1CC2=C(C1)CN(S(=O)(=O)c1ccccn1)C2 [Example 18-69, 2-({5-[(2S)-oxolane-2-carbonyl]-1H,2H,3H,4H,5H,6H-pyrrolo[3,4-c]pyrrol-2-yl}sulfonyl)pyridine]	75 to 250	1 to 40	75 to 250	75 to 250	1 to 40	75 to 250	75 to 250	1 to 40	75 to 250
O=C(Cn1cnnn1)N1CC2=C(C1)CN(S(=O)(=O)c1cccnc1)C2 [Example 18-70, 1-[5-(Pyridine-3-sulfonyl)-1H,2H,3H,4H,5H,6H-pyrrolo[3,4-c]pyrrol-2-yl]-2-(1H-1,2,3,4-tetrazol-1-yl)ethan-1-one]	75 to 250	1 to 40	75 to 250	75 to 250	1 to 40	75 to 250	75 to 250	1 to 40	75 to 250

Other lines, results leading:

activation at 1.54 µM (PKR(G332S)) [%]	AC50 (PKR(G332S)) [µM]	Emax (PKR(G332S)) [%]	activation at 1.54 µM (PKR(R510Q)) [%]	AC50 (PKR(R510Q)) [µM]	Emax (PKR(R510Q)) [%]	activation at 1.54 µM (PKR(wt)) [%]	AC50 (PKR(wt)) [µM]	Emax (PKR(wt)) [%]	Compound
75 to 250	1 to 40	75 to 250	75 to 250	1 to 40	250 to 500	75 to 250	1 to 40	250 to 500	O=C(Cc1ccc(F)cc1F)N1CC2=C(C1)CN(S(=O)(=O)c1cccnc1)C2 [Example 18-66, 2-(2,4-Difluorophenyl)-1-[5-(pyridine-3-sulfonyl)-1H,2H,3H,4H,5H,6H-pyrrolo[3,4-c]pyrrol-2-yl]ethan-1-one]
75 to 250	1 to 40	75 to 250	75 to 250	1 to 40	75 to 250	75 to 250	1 to 40	75 to 250	O=C(Cc1ccc[nH]1)N1CC2=C(C1)CN(S(=O)(=O)c1cccnc1)C2 [Example 18-73, 1-[5-(Pyridine-3-sulfonyl)-1H,2H,3H,4H,5H,6H-pyrrolo[3,4-c]pyrrol-2-yl]-2-(1H-pyrrol-2-yl)ethan-1-one]
